# Article PMC7181660, “A novel specific PERK activator reduces toxicity and extends survival in Huntington's disease models” (Scientific Reports, 2020)
# Like-named read-outs stand apart in the source and are kept apart here.
# Assays:
# Assay in all cases: biochemical
# Type in all cases: biochemical
# panel of 391 kinases [1] = target: panel of 391 kinases (Homo sapiens, UniProt Q9P289); settings: MST4, MK-28 1 µM, ATP 1 µM
# panel of 391 kinases [2] = target: panel of 391 kinases (Homo sapiens, UniProt P36897); settings: ALK5/TGFBR1, MK-28 1 µM, ATP 1 µM
# panel of 391 kinases [3] = target: panel of 391 kinases (Homo sapiens, UniProt Q9BXA7); settings: STK22D/TSSK1, MK-28 1 µM, ATP 1 µM
# panel of 391 kinases [4] = target: panel of 391 kinases (Homo sapiens, UniProt Q02763); settings: TIE2/TEK, MK-28 1 µM, ATP 1 µM
# panel of 391 kinases [5] = target: panel of 391 kinases (Homo sapiens, UniProt Q86V86); settings: PIM3, MK-28 1 µM, ATP 1 µM
# panel of 391 kinases [6] = target: panel of 391 kinases (Homo sapiens, UniProt O00418); settings: kinase EEF2K, compound at 1 µM, single dose in duplicates, 1 µM ATP
# panel of 391 kinases [7] = target: panel of 391 kinases (Homo sapiens, UniProt Q86SG6); settings: NEK8, MK-28 1 µM, ATP 1 µM
# panel of 391 kinases [8] = target: panel of 391 kinases (Homo sapiens, UniProt P24941); settings: MK-28 1 µM, ATP 1 µM; for remaining activity at 1 µM: read-out: % Enzyme Activity (relative to DMSO controls)
# panel of 391 kinases [9] = target: panel of 391 kinases (Homo sapiens, UniProt Q8TF76); settings: Haspin, MK-28 1 µM, ATP 1 µM
# panel of 391 kinases [10] = target: panel of 391 kinases (Homo sapiens, UniProt P52564); settings: MKK6, MK-28 1 µM, ATP 1 µM
# panel of 391 kinases [11] = target: panel of 391 kinases (Homo sapiens, UniProt P06241); settings: FYN, MK-28 1 µM, ATP 1 µM
# panel of 391 kinases [12] = target: panel of 391 kinases (Homo sapiens, UniProt P48730); settings: CK1d, MK-28 1 µM, ATP 1 µM
# panel of 391 kinases [13] = target: panel of 391 kinases (Homo sapiens, UniProt Q9UF33); settings: EPHA6, MK-28 1 µM, ATP 1 µM
# panel of 391 kinases [14] = target: panel of 391 kinases (Homo sapiens, UniProt P04626); settings: ERBB2/HER2, MK-28 1 µM, ATP 1 µM
# panel of 391 kinases [15] = target: panel of 391 kinases (Homo sapiens, UniProt Q96NX5); settings: CAMK1g, MK-28 1 µM, ATP 1 µM
# panel of 391 kinases [16] = target: panel of 391 kinases (Homo sapiens, UniProt Q9BZL6); settings: PKD2/PRKD2, MK-28 1 µM, ATP 1 µM
# panel of 391 kinases [17] = target: panel of 391 kinases (Homo sapiens, UniProt Q5VT25); settings: MRCKa/CDC42BPA, MK-28 1 µM, ATP 1 µM
# panel of 391 kinases [18] = target: panel of 391 kinases (Homo sapiens, UniProt P20794); settings: MAK, MK-28 1 µM, ATP 1 µM
# panel of 391 kinases [19] = target: panel of 391 kinases (Homo sapiens, UniProt P07948); settings: LYN, MK-28 1 µM, ATP 1 µM
# panel of 391 kinases [20] = target: panel of 391 kinases (Homo sapiens, UniProt Q6P2M8); settings: CAMK1b, MK-28 1 µM, ATP 1 µM
# panel of 391 kinases [21] = target: panel of 391 kinases (Homo sapiens, UniProt Q92918); settings: HPK1/MAP4K1, MK-28 1 µM, ATP 1 µM
# panel of 391 kinases [22] = target: panel of 391 kinases (Homo sapiens, UniProt Q15418); settings: RSK1, MK-28 1 µM, ATP 1 µM
# [23] = read-out: % Enzyme Activity (relative to DMSO controls)
compound,measurement,setting,value
CN(/N=C\c1ccc(O)c(O)c1)c1nc(-c2ccccc2)cc(-c2ccccc2)n1 [MK-28],% Enzyme Activity (relative to DMSO controls),panel of 391 kinases [1],101.40%
same,remaining activity at 1 µM,panel of 391 kinases [1]; [23],102%
same,% Enzyme Activity (relative to DMSO controls),panel of 391 kinases [2],96.61%
same,remaining activity at 1 µM,panel of 391 kinases [2]; [23],97.7%
same,% Enzyme Activity (relative to DMSO controls),panel of 391 kinases [3],91.99%
same,remaining activity at 1 µM,panel of 391 kinases [3]; [23],93.3%
same,% Enzyme Activity (relative to DMSO controls),panel of 391 kinases [4],98.55%
same,remaining activity at 1 µM,panel of 391 kinases [4]; [23],99%
same,% Enzyme Activity (relative to DMSO controls),panel of 391 kinases [5],87.24%
same,remaining activity at 1 µM,panel of 391 kinases [5]; [23],89.2%
same,% Enzyme Activity (relative to DMSO controls),panel of 391 kinases [6],90.89%
same,remaining activity at 1 µM,panel of 391 kinases [6]; [23],91%
same,% Enzyme Activity (relative to DMSO controls),panel of 391 kinases [7],101.46%
same,remaining activity at 1 µM,panel of 391 kinases [7]; [23],101%
same,% Enzyme Activity (relative to DMSO controls),panel of 391 kinases [8]; CDK2/Cyclin A1,112.90%
same,remaining activity at 1 µM,panel of 391 kinases [8]; CDK2/Cyclin A1,118%
same,% Enzyme Activity (relative to DMSO controls),panel of 391 kinases [8]; CDK2/cyclin A,102.50%
same,remaining activity at 1 µM,panel of 391 kinases [8]; CDK2/cyclin A,104%
same,% Enzyme Activity (relative to DMSO controls),panel of 391 kinases [8]; CDK2/cyclin E2,99.65%
same,remaining activity at 1 µM,panel of 391 kinases [8]; CDK2/cyclin E2,100%
same,% Enzyme Activity (relative to DMSO controls),panel of 391 kinases [8]; CDK2/cyclin E,95.41%
same,remaining activity at 1 µM,panel of 391 kinases [8]; CDK2/cyclin E,97%
same,% Enzyme Activity (relative to DMSO controls),panel of 391 kinases [8]; CDK2/cyclin O,124.92%
same,remaining activity at 1 µM,panel of 391 kinases [8]; CDK2/cyclin O,126%
same,% Enzyme Activity (relative to DMSO controls),panel of 391 kinases [9],102.02%
same,remaining activity at 1 µM,panel of 391 kinases [9]; [23],116%
same,% Enzyme Activity (relative to DMSO controls),panel of 391 kinases [10],94.11%
same,remaining activity at 1 µM,panel of 391 kinases [10]; [23],95.6%
same,% Enzyme Activity (relative to DMSO controls),panel of 391 kinases [11],103.36%
same,remaining activity at 1 µM,panel of 391 kinases [11]; [23],103%
same,% Enzyme Activity (relative to DMSO controls),panel of 391 kinases [12],95.42%
same,remaining activity at 1 µM,panel of 391 kinases [12]; [23],99.5%
same,% Enzyme Activity (relative to DMSO controls),panel of 391 kinases [13],92.67%
same,remaining activity at 1 µM,panel of 391 kinases [13]; [23],94%
same,% Enzyme Activity (relative to DMSO controls),panel of 391 kinases [14],98.41%
same,remaining activity at 1 µM,panel of 391 kinases [14]; [23],99.3%
same,% Enzyme Activity (relative to DMSO controls),panel of 391 kinases [15],96.34%
same,remaining activity at 1 µM,panel of 391 kinases [15]; [23],100%
same,% Enzyme Activity (relative to DMSO controls),panel of 391 kinases [16],86.38%
same,remaining activity at 1 µM,panel of 391 kinases [16]; [23],87%
same,% Enzyme Activity (relative to DMSO controls),panel of 391 kinases [17],93.74%
same,remaining activity at 1 µM,panel of 391 kinases [17]; [23],95.3%
same,% Enzyme Activity (relative to DMSO controls),panel of 391 kinases [18],94.70%
same,remaining activity at 1 µM,panel of 391 kinases [18]; [23],97.8%
same,% Enzyme Activity (relative to DMSO controls),panel of 391 kinases [19],96.29%
same,remaining activity at 1 µM,panel of 391 kinases [19]; [23],96.5%
same,% Enzyme Activity (relative to DMSO controls),panel of 391 kinases [20],94.89%
same,remaining activity at 1 µM,panel of 391 kinases [20]; [23],96.9%
same,% Enzyme Activity (relative to DMSO controls),panel of 391 kinases [21],114.23%
same,remaining activity at 1 µM,panel of 391 kinases [21]; [23],117%
same,% Enzyme Activity (relative to DMSO controls),panel of 391 kinases [22],96.73%
same,remaining activity at 1 µM,panel of 391 kinases [22]; [23],96.8%
